{"source": "patent US20240100164A1", "about": "“REPEATED PHOTODYNAMIC THERAPY USING PHOTOSENSITIZING AGENT” (Incando Therapeutics Pte. Ltd., priority 2022, published 2024)", "key": {"glioma cells": {"system": "glioma cells", "assay": "In vitro 3D hydrogel culture, PDT induced cell death of glioma cells", "type": "cell-based", "conditions": "glioma cells in 3D-hydrogel incubated with 5-ALA, illuminated with LED at 630 nm", "excerpt": "An in vitro model of light penetration into tissue was established to determine the quantitative relationship between light penetrance PDT instigated cell death. The primary parameters for light input are illumination intensity and duration of illumination. The primary parameter for PDT instigated cell death is depth (or distance from the light source to the target treatment tissue), which directly attenuates light penetration into tissue.\nTo evaluate PDT for treatment of gliomas and brain cancers glioma cells were propagated in a hydrogel medium in a three-dimensional (3D) culture to mimic the cellular and optical environment of the brain. A commercial 3D culture system was used to set up the culture in a linear configuration such that a point source of light could be applied to one end of a closed culture in a cylinder form. The total cellular growth volume was 1 mm×1 mm×15 mm. A 630 nm LED light source that mimics the spectral characteristics and intensity of the any of the implantable devices disclosed herein was used to illuminate embedded glioma cells and to establish the effective PDT “kill radius.”\nFIGS. 9A-9B show PDT induced cell death of glioma cells using a LED light source such as any of those disclosed herein. Glioma cells were embedded in a 3D-hydrogel, incubated with study drug 5-ALA, and illuminated with a light from a LED at 630 nm as shown in FIG. 9A. […]"}, "C6 glioma [1]": {"system": "C6 glioma", "assay": "Orthotopic C6 glioma xenograft, 5-ALA uptake and conversion to PPIX in tumor", "type": "in vivo, Sprague Dawley rat", "conditions": "C6 tumor in rat striatum, histology", "method": "C6 rat glioma cells were maintained in F12K medium (F-12K Nutrient Mixture, 1X, Gibco) supplemented with […] (Biowest), […] (Gibco), and 1% each of P/S and L/G antibiotics (Biowest) at 37° C. in a humidified incubator containing 5% CO2. Subconfluent, low passage C6 glioma cells were resuspended to single cell suspension in sterile PBS (1X, Hyclone) within two hours of xenotransplantation.\nApproximately 2×10^5 cells were stereotactically injected into the striatum of rats (230-270 g, InVivos Pte Ltd) under general anaesthesia. Using a hand-held drill, a burr hole of 1 mm was drilled and cells were injected unilaterally at 3 mm lateral to Bregma and at a depth of 4 mm. Injections were conducted using borosilicate capillary glass micropipettes (A-M Systems) pulled to a tip diameter of ˜[…]. Animals were allowed to recover with daily antibiotics and analgesics for up to a week and monitored post operatively for adverse events and signs of distress in compliance with relevant animal treatment guidelines.\nFIG. 10 illustrates an orthotopic xenograft model. Rat C6 glioma cells are implanted unilaterally into the striatum of Sprague Dawley rats. Tumor engraftment and growth was rapid and morphology is consistent with human high grade gliomas."}, "C6 glioma [2]": {"system": "C6 glioma", "assay": "Single application of PDT in orthotopic C6 glioma model (Ki67, TUNEL histology)", "type": "in vivo, Sprague Dawley rat", "method": "(§1) The implants were secured in place by suturing the overlying skin to close the surgical site. Device operation was tested briefly before closure. Six hours prior to each PDT treatment, rats were injected with 100 mg/kg 5-ALA (Synchem UG & Co. KG) prepared in sterile PBS (1X, Hyclone) via tail vein or with a vehicle control. PDT treatment was conducted under 1.5-2.5% […] isoflurane/O2 general anesthesia. Wireless powering coils such as those disclosed herein were secured to each animal's head, and each PDT treatment delivered 2.5 mW/cm2 of light over 3,600 seconds for a total fluence of 9 J/cm^2 per treatment. Any of the other treatment parameters disclosed herein may be used.\nTest animals were sacrificed after 24 hours, and their brains were sectioned for histological examination. The proliferation marker Ki67 and the TUNEL assay (terminal deoxynucleotidyl transferase dUTP nick end labeling) indicative of apoptosis was used to quantify the PDT effect.\nTest animals were sacrificed after 24 hours, and their brains were sectioned for histological examination. The proliferation marker Ki67 and the TUNEL assay indicative of apoptosis was used to quantify the PDT effect."}, "C6 glioma [3]": {"system": "C6 glioma", "assay": "Single vs. repeated PDT (rePDT) in orthotopic C6 glioma model, survival and tumor size", "type": "in vivo, Sprague Dawley rat", "excerpt": "Animals were monitored daily for weight change and behavioral abnormalities ahead of xenograft induced mortality. Ethical termination via CO2 overdose was triggered in the following events: individual weight loss of greater than 20% in one day, extended cessation of motor behavior and loss of grooming; paralysis and lack of movement/lying on a side. After termination or death, individual rat brains were dissected and prepared for histological analysis by freezing in OCT compound (Tissue-Tek). Survival analysis was performed via the method of Kaplan-Meier.\nas §1\nFurther experimentation was conducted to determine if repeated application of PDT treatment would have a cumulative effect on tumor growth and disease progression. […] If a single PDT treatment was at least 50% effective in destroying the tumor population, an inter-treatment interval of 2 days would maintain or diminish the tumor graft to at, or near starting levels. With this rationale in mind, PDT treatment was applied according to the schema shown in FIG. 12A with four treatments repeated every two days starting at day 4 after xenograft surgery.\nOn the day of treatment, animals received 5-ALA via tail vein injection and allowed to recover for 6 hours to allow uptake and expression of PPIX. PDT treatment was conducted under light general anaesthesia via halothane to reduce movement during PDT. […] This procedure was repeated at 2-day intervals for a total of four treatments.\nFIG. 13 also illustrates survival curves for single vs repeat PDT treated animals. Sprague Dawley rats were implanted with c6 glioma cells and implanted with a wirelessly powered light source above the injection site as described. On treatment days (days 4, 6, 8, 10), animals were given the study drug 5-ALA as described and received PDT treatment. […] In contrast, 7 of 8 cohort 2 animals, which received PDT treatment on days 4, 6, 8, and 10, survived to day 70 at which point the experiment was stopped. Therefore, rePDT kills more of the tumor compared with a single treatment of PDT and increases survival time of the rodents."}, "[4]": {"conditions": "in vivo; cited from earlier work"}}, "note": "Values joined by “and” are separate entries in the source; they are usually repeats but may differ in a detail not shown here. Equal values may be shown once.", "data": [{"smiles": "Cl.NCC(=O)CCC(=O)O", "note": "[5-ALA, 5-amino-4-oxo-pentanoic acid hydrochloride]", "values": [{"measurement": "effective \"kill zone\" (distance from the light source)", "setting": "glioma cells", "value": "6-8 mm"}, {"measurement": "PPIX signal in the tumor (conversion of 5-ALA to PPIX)", "setting": "C6 glioma [1]", "value": "Strong PPIX signal"}, {"measurement": "tumor uptake of photosensitizer", "setting": "C6 glioma [1]", "value": "takes up the photosensitizer drug 5-ALA"}, {"measurement": "PDT effect (Ki67 and TUNEL)", "setting": "C6 glioma [2]; 100 mg/kg 5-ALA tail vein 6 h before wirelessly powered light, 9 J/cm^2, sacrificed after 24 hours", "value": "able to induce PDT"}, {"measurement": "PDT effect (Ki67 and TUNEL)", "setting": "C6 glioma [2]; either component singly (5-ALA without light)", "value": "did not show the same effect"}, {"measurement": "adverse effects after PDT treatment", "setting": "C6 glioma [3]; 5-ALA tail vein 6 hours before PDT under general anaesthesia, four treatments at 2-day intervals", "value": "no adverse effects"}, {"measurement": "mean survival", "setting": "C6 glioma [3]; Cohort 1, PDT treatment only on day 4 (n=10)", "value": "~22", "unit": "days"}, {"measurement": "time of mortality", "setting": "C6 glioma [3]; control animals (control treatment = single PDT session)", "value": "22 to 24", "unit": "days"}, {"measurement": "tumor size", "setting": "C6 glioma [3]; control animals (control treatment = single PDT session), necropsy", "value": "125-200 mm^3"}, {"measurement": "median survival", "setting": "C6 glioma [3]; control animals (n=10), Kaplan-Meier", "value": 21, "unit": "days"}, {"measurement": "animals living at the end of the experiment", "setting": "C6 glioma [3]; rePDT", "value": 89, "unit": "%"}, {"measurement": "tumor cells by H&E staining", "setting": "C6 glioma [3]; rePDT animals, histology", "value": "trace amounts of tumor cells"}, {"measurement": "Ki67 level", "setting": "C6 glioma [3]; rePDT animals, histology, vs contralateral controls", "value": "low levels of Ki67"}, {"measurement": "reduction in the tumor volume", "setting": "C6 glioma [3]; rePDT vs control animals, gross estimates", "value": "> 99.5", "unit": "%"}, {"measurement": "animals living at the end of the experiment (day 70)", "setting": "C6 glioma [3]; rePDT, PDT on days 4, 6, 8, 10, hydrochloride", "value": "8 out of 9 and 7 of 8"}, {"measurement": "survival (day of termination of experiment)", "setting": "C6 glioma [3]; repeated PDT (rePDT), four treatments every two days from day 4", "value": "≥ 70", "unit": "days"}]}, {"smiles": "C=CC1=C(C)c2cc3[nH]c(cc4nc(cc5[nH]c(cc1n2)c(C)c5CCC(=O)O)C(CCC(=O)O)=C4C)c(C)c3C=C", "note": "[PPIX, Protoporphyrin IX]", "values": [{"measurement": "systemic clearance time of 5-ALA-induced PPIX", "setting": "[4]", "value": "≤ 24", "unit": "h"}]}]}
